Data on 4 compounds can be found in patent US20110105349A1, “USE OF A MONOPHOSPHATE ESTER OF A PHTHALEIN COMPOUND AS A SUBSTRATE FOR TARTRATE-RESISTANT ACID PHOSPHATASE B5 (TRAP 5B)” (MUNODIAGNOSTIC SYSTEMS LIMITED, priority 2008, published 2011).

Entries after “also recorded” stand apart in the source; their conditions may differ.

In assay [1] the test system is TRAP5b. As to the kind of experiment: TRAP5 capture immunoassay, specific activity with each substrate (Example 3). In kind it is biochemical, human. The method, then: (§1) Microtitre plates (Nunc Maxisorp) were coated with mouse anti-TRAP5 (clone O1A), from a solution of a 3.0 mg/L purified Mab IgG in 10 mM phosphate buffered saline (PBS), 100 μL per well and incubated overnight at room temperature. The coated plates were washed three times with 10 mM phosphate buffered saline, 0.05% Tween 20. A stabilising reagent of 5% lactose, 0.5% BSA was added, 250 μL per well, incubated for at least 10 minutes, then the liquid aspirated. The coated plates were dried overnight at 35° C. then stored at 2-8° C. protected from moisture.
(§2) Serum-derived TRAP5a and TRAP5b were separated by ion exchange chromatography using a modification of the procedure described by Lam et al, Clin. Chem. 24(7):1105-1108, 1978. 100-500 mL human serum was adjusted to around pH 5.0 with 100% acetic acid, and optionally diluted with an equal volume of 10 mM sodium phosphate buffer, pH 4.9. After clarification by centrifugation and filtering, the acidified serum was applied to a 1 cm×100-150 cm column of CM-Sepharose (Sigma, part No CCF 100) and the column was developed with a linear NaCl gradient, from 150-800 mM. Fractions containing TRAP5a and TRAP5b activity were identified using a non-capture assay essentially as described by Lam et al Clin. Chem. 24(7):1105-1108, 1978. In some instances the fractions were further assayed for TRAP5 by the immunoassays described below. Fractions containing peak levels of TRAP5a or TRAP5b were separately pooled for further analysis.
The TRAP5 protein concentration in the TRAP5a and TRAP5b preparations was determined by a sandwich immunoassay. 100-200 μL sample per well was applied to O1A-coated microtitre plates and incubated overnight at 4° C. The plate was washed three times with 10 mM phosphate buffered saline, 0.05% Tween 20, and 100-200 μL of a solution containing the rabbit anti-TRAP5 antibody at a dilution of 1:4000 was added per well. After 60 min incubation at ambient temperature the plate was washed as above and 100-200 μL of a solution containing anti-rabbit IgG-Horseradish peroxidase conjugate at a dilution of 1:5000 was added and incubated for 30 min at ambient temperature. After further washing as described above […] of TMB (BioFx Inc, part TMBW-0100-01) was added and incubated for 30 min at ambient temperature. The reactions were stopped by the addition of 100 μL 0.5M HCl and the absorbance at 450 nm was measured. TRAP5 protein concentrations were calculated by reference to a calibration curve prepared from baculovirus-derived recombinant human TRAP5.
(§3) To test for activity towards PTMP, 100 μL of a solution containing 6 mg/mL PTMP dissolved in 125 mM MOPS buffer, pH 7.0 was added per well and incubated for 0-40 min at 37° C. The reactions were stopped at the times indicated by the addition of 50 μL per well of 1M glycine/NaOH, pH11 and the absorbance at […] was measured. To test for activity towards TTMP, 100 μL of a solution containing 5 mg/mL TTMP dissolved in 80 mM MOPS buffer, 10% ethanol, pH 7.0 was added per well and incubated for 0-40 min at 37° C. The reactions were stopped at the times indicated by the addition of 50 μL per well of 0.25 M NaOH and the absorbance at […] was measured.
TRAP5a and TRAP5b preparations were prepared and quantified with respect to TRAP5 mass as described in Example 3. A set of TRAP5 calibrators was prepared by incubating 225 μg baculovirus-derived recombinant human TRAP with 12 U chymotrypsin for 6 h at ambient temperature, preparing a series of dilutions from this material and assigning TRAP5 concentrations (in U/L) to these dilutions using the commercial TRAP5b immunoassay based on WO1999/050662. The TRAP5a and TRAP5b preparations were assayed by a commercial TRAP5b immunoassay based on WO1999/050662 which uses pNPP as substrate at pH 6.1 with the modification that the chymotrypsin-treated calibrators described above were substituted for those provided by the manufacturer. […]

Assay [2] has as its system TRAP5b. Kind of assay: Time course of substrate hydrolysis on O1A-coated plates (Example 1, FIG. 1). In kind it is biochemical, human. The method, then: as §1, §2
(§4) The TRAP5 protein concentration in the TRAP5a and TRAP5b preparations was determined by a sandwich immunoassay. 100-200 μL sample per well was applied to O1A-coated microtitre plates and incubated overnight at 4° C. The plate was washed three times with 10 mM phosphate buffered saline, 0.05% Tween 20, and 100-200 μL of a solution containing the rabbit anti-TRAP5 antibody at a dilution of 1:4000 was added per well. […] The reactions were stopped by the addition of 100 μL 0.5M HCl and the absorbance at 450 nm was measured. TRAP5 protein concentrations were calculated by reference to a calibration curve prepared from baculovirus-derived recombinant human TRAP5.
(§5) To test for activity towards PTMP, 100 μL of a solution containing 6 mg/mL PTMP dissolved in 125 mM MOPS buffer, pH 7.0 was added per well and incubated for 0-40 min at 37° C. The reactions were stopped at the times indicated by the addition of 50 μL per well of 1M glycine/NaOH, pH11 and the absorbance at […] was measured. […] The reactions were stopped at the times indicated by the addition of 50 μL per well of 0.25 M NaOH and the absorbance at […] was measured.

Assay [3] concerns the target T1, TRAP5a (Homo sapiens, UniProt P13686).
T1 construct: Serum-derived TRAP5a and TRAP5b were separated by ion exchange chromatography; from tissue; host or cells: human serum
T1 sequence (P13686 22-325): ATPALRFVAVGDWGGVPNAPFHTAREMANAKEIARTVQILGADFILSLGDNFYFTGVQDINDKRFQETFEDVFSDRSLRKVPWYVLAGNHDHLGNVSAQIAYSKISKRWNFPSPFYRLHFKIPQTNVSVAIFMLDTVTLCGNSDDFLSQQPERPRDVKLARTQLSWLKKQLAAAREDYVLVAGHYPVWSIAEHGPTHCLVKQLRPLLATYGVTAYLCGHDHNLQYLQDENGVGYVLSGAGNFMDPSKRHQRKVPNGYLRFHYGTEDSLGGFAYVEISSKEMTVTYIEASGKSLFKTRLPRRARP
As to the kind of experiment: TRAP5 capture immunoassay, specific activity with each substrate (Example 3). It is filed as biochemical. The settings on record: serum-derived TRAP5a; pNPP at pH 6.1, PTMP and TTMP at pH 7.0. How it is done: as §1, §2, §4, §5
TRAP5a and TRAP5b preparations were prepared and quantified with respect to TRAP5 mass as described in Example 3. […]

The target in assay [4] is T1, TRAP5a. Kind of assay: Time course of substrate hydrolysis on O1A-coated plates (Example 1, FIG. 1). The settings on record: serum-derived TRAP5a; neutral pH (7.0) in Example 1. It is filed as biochemical. The method, then: Microtitre plates (Nunc Maxisorp) were coated with mouse anti-TRAP5 (clone O1A), from a solution of a 3.0 mg/L purified Mab IgG in 10 mM phosphate buffered saline (PBS), 100 μL per well and incubated overnight at room temperature. The coated plates were washed three times with 10 mM phosphate buffered saline, 0.05% Tween 20. A stabilising reagent of 5% lactose, 0.5% BSA was added, 250 μL per well, incubated for at least 10 minutes, then the liquid aspirated. The coated plates were dried overnight at 35° C. then stored at 2-8° C. protected from moisture. […]
The TRAP5 protein concentration in the TRAP5a and TRAP5b preparations was determined by a sandwich immunoassay. […] The reactions were stopped by the addition of 100 μL 0.5M HCl and the absorbance at 450 nm was measured. TRAP5 protein concentrations were calculated by reference to a calibration curve prepared from baculovirus-derived recombinant human TRAP5.
as §5

The test system of assay [5] is TRAP5b. The note with it: cited from earlier work.
The target in assay [6] is T1, TRAP5a. As to the kind of experiment: Activity with phthalein monophosphate esters at 0.47 mg/mL, pH 7.4 (Example 8). Also on record: unit not given beside the values. In kind it is biochemical. The note with it: 0.47 mg/mL in 100 mM MES pH7.4. How it is done: as §3
(§6) Where phthalein monophosphate esters were not available commercially, the monophosphate esters were prepared by the method of Bulbenko & Woodbridge (U.S. Pat. No. 4,045,290) by reaction of the appropriate phthalein compound (from Sigma-Aldrich) with phosphorus oxychloride (CAS 10025-87-3), followed by hydrolysis and purification. The monophosphate esters were further purified before use by HPLC chromatography to remove un-reacted phthalein dye. HPLC column 10 mm×150 mm ACE 5 C18 (Advance Chromatography Technologies, UK), load solvent composition, 30% methanol and 70% water containing 0.1% trifluoroacetic acid (TFA); product was eluted by a gradient from 30% methanol 0.1% TFA to 100% methanol 0.1% TFA at 3 mL/minute over 45 minutes.
(§7) Phthalein monophosphate esters prepared in Example 7 were diluted to 0.47 mg/mL in 100 mM MES pH7.4 buffer and applied to an assay as in Example 1.

Assay [7] has as its system TRAP5b. The description is as above. The settings on record: 0.47 mg/mL in 100 mM MES pH7.4. The arrangement: 5b Activity: unit not given here. In kind it is biochemical, human. How it is done:
as §3, §6, §7

As for `Cc1cc(O)c(C(C)C)cc1C1(c2cc(C(C)C)c(OP(=O)(O)O)cc2C)OC(=O)c2ccccc21` (stereo not drawn) [TTMP, Thymolphthalein monophosphate], the “Ratio 5B:5A of specific activity” value in the assay with TRAP5b [1] (pNPP at pH 6.1, PTMP and TTMP at pH 7.0) is 65.3. Also, the “specificity for TRAP5b over TRAP5a compared with the commercial pNPP based assay” value in the assay with TRAP5b [1] (relative to pNPP-based assay) is listed as around 6.5 fold. The “TRAP5 Specific Activity 5B” value in the assay with TRAP5b [1] (serum-derived TRAP5b, pNPP at pH 6.1, PTMP and TTMP at pH 7.0) is listed as 2.3 U/μg. For the same compound, the “specific activity of TRAP5b relative to that of TRAP5a” value in the assay with TRAP5b [2] (pH 7.0, from FIG. 1) is listed as “approximately 70 times”. For the same compound, the “hydrolysis of substrate by TRAP5b” value with TRAP5b [2] (serum-derived TRAP5b, neutral pH (7.0) in Example 1) is recorded as “readily hydrolyze; also recorded: hydrolised”. Moreover, the “TRAP5 Specific Activity 5A” value on TRAP5a [3] is 0.035 U/μg. The “hydrolysis of substrate by TRAP5a” value on TRAP5a [4] is on record as “readily hydrolyze; also recorded: hydrolised”.
For `O=[N+]([O-])c1ccc(OP(=O)(O)O)c(Cl)c1` [2-chloro-4-nitrophenylphosphate], the “relative activity for TRAP 5b over TRAP 5a compared with WO1999/050662” value in the assay with TRAP5b [5] (EP 1598670) is 0.8 ×. Further, in the assay with TRAP5b [5] (WO1999/050662 (pNPP), EP1598670 (2-chloro-4-nitrophenylphosphate)), the “pH optimum of TRAP5b” value was 6.4 pH.
In the case of `Cc1cc(C2(c3cc(C)c(OP(=O)(O)O)c(Br)c3)OS(=O)(=O)c3ccccc32)cc(Br)c1O` (stereo not drawn) [Bromocresol Purple, Bromocresol Purple monophosphate], on TRAP5a [6], the “5a Activity” value came to 0.0074. For the same compound, in the assay with TRAP5b [7], the “5b Activity” value turned out to be 0.4755 and the “Ratio of 5b:5a activity” value turned out to be 64.3.
For `Cc1c(C2(c3cc(Br)c(OP(=O)(O)O)c(Br)c3C)OS(=O)(=O)c3ccccc32)cc(Br)c(O)c1Br` (stereo not drawn) [Bromocresol Green, Bromocresol Green monophosphate], in that order: 0.0036, 0.2636 and 73.2.
